Measured values published in patent publication US4147861A, “1N-(α-Hydroxy-ω-aminoalkanoyl)- 6'N-methyl-3',4'-dideoxykanamycin B and the production thereof” (Zaidan Hojin Biseibutsu Kagaku Kenkyu Kai, priority 1977, dated 1979).
In brackets after ≈: the same amount, converted by molar mass. Read-outs that look alike come from different tables or passages of the source.

Tests used:
[1] = tested on: kanamycin-resistant bacteria; conditions: prior art statement; cited from earlier work
Staphylococcus aureus = assay: Minimum inhibitory concentration, serial dilution method on nutrient agar; type: cell-based; conditions: 37° C., 18 hours, read-out: Minimum Inhibitory Concentrations
[2] = tested on: Staphylococcus aureus FDA 209P; assay: as above; type: cell-based; conditions: FDA209P, 37° C., 18 hours, read-out: Minimum Inhibitory Concentrations
[3] = tested on: Staphylococcus aureus Terajima; assay: as above; type: cell-based; conditions: 37° C., 18 hours, read-out: Minimum Inhibitory Concentrations
Sarcina lutea PCI 1001 = assay: as above; type: cell-based; conditions: Micrococcus luteus, PCI1001, 18 h, read-out: Minimum Inhibitory Concentrations
Bacillus anthracis = assay: microbe, parasite or virus in culture; type: cell-based; conditions: 18 h, read-out: Minimum Inhibitory Concentrations
[4] = tested on: Bacillus subtilis PCI 219; assay: Minimum inhibitory concentration, serial dilution method on nutrient agar; type: cell-based; conditions: PCI219, 37° C., 18 hours, read-out: Minimum Inhibitory Concentrations
[5] = tested on: Bacillus subtilis NRRL B-558; assay: as above; type: cell-based; conditions: NRRLB558, 37° C., 18 hours, read-out: Minimum Inhibitory Concentrations
[6] = tested on: Bacillus cereus ATCC 10702; assay: as above; type: cell-based; conditions: Bacillus cereus, ATCC10702, 18 h, read-out: Minimum Inhibitory Concentrations
[7] = tested on: Corynebacterium bovis 1810; assay: as above; type: cell-based; conditions: read-out: Minimum Inhibitory Concentrations
[8] = tested on: Mycobacterium smegmatis ATCC 607; assay: as above; type: cell-based; conditions: Mycolicibacterium smegmatis, ATCC607, 37° C., 18 hours, read-out: Minimum Inhibitory Concentrations
[9] = tested on: Shigella dysenteriae JS 11910; assay: as above; type: cell-based; conditions: JS11910, 18 h, read-out: Minimum Inhibitory Concentrations
Salmonella typhosa T-63 = assay: as above; type: cell-based; conditions: Salmonella enterica, 18 h, read-out: Minimum Inhibitory Concentrations
[10] = tested on: Salmonella enteritidis 1891; assay: as above; type: cell-based; conditions: Salmonella enterica; Salmonella enteritidis 1891; 37° C., 18 hours; read-out: Minimum Inhibitory Concentrations
Proteus vulgaris OX 19 = assay: as above; type: cell-based; conditions: OX19; Proteus vulgaris OX 19; 37° C., 18 hours; read-out: Minimum Inhibitory Concentrations
[11] = tested on: Klebsiella pneumoniae PCT 602; assay: as above; type: cell-based; conditions: PCT602; Klebsiella pneumoniae PCT 602; 37° C., 18 hours; read-out: Minimum Inhibitory Concentrations
Escherichia coli NIHJ = assay: as above; type: cell-based; conditions: read-out: Minimum Inhibitory Concentrations
Escherichia coli K-12 = assay: as above; type: cell-based; conditions: K12; Escherichia coli K-12; 37° C., 18 hours; read-out: Minimum Inhibitory Concentrations
Escherichia coli K-12 R5 = assay: as above; type: cell-based; conditions: K12R5, 18 h, read-out: Minimum Inhibitory Concentrations
[12] = tested on: Escherichia coli K-12 ML 1629; assay: as above; type: cell-based; conditions: read-out: Minimum Inhibitory Concentrations
[13] = tested on: Escherichia coli K-12 ML 1410; assay: as above; type: cell-based; conditions: read-out: Minimum Inhibitory Concentrations
[14] = tested on: Escherichia coli LA290 R55; assay: as above; type: cell-based; conditions: LA290R55, 18 h, read-out: Minimum Inhibitory Concentrations
[15] = tested on: Escherichia coli LA290 R56; assay: as above; type: cell-based; conditions: LA290R56, 18 h, read-out: Minimum Inhibitory Concentrations
[16] = tested on: Escherichia coli LA290 R64; assay: as above; type: cell-based; conditions: LA290R64, 18 h, read-out: Minimum Inhibitory Concentrations
Escherichia coli W677 = assay: as above; type: cell-based; conditions: Escherichia coli W677; 37° C., 18 hours; read-out: Minimum Inhibitory Concentrations
[17] = tested on: Escherichia coli JR66/W677; assay: as above; type: cell-based; conditions: Escherichia coli, JR66/W677, 18 h, read-out: Minimum Inhibitory Concentrations
[18] = tested on: Escherichia coli K-12 ML 1630; assay: as above; type: cell-based; conditions: K12ML1630, 37° C., 18 hours, read-out: Minimum Inhibitory Concentrations
Description: (§1) The minimum inhibitory concentrations (mcg./ml.) of 1N-(DL-isoseryl)-6'N-methyl-3',4'-dideoxykanamycin B (abbreviated as DL-IS-MDKB); 1N-(L-isoseryl)-6'N-methyl-3',4'-dideoxykanamycin B (abbreviated as L-IS-MDKB); 1N-(L-4-amino-[…])-6'N-methyl-3',4'-dideoxykanamycin B (abbreviated as AHB-MDKB); and 1N-(L-5-amino-2-hydroxyvaleryl)-6'N-methyl-3',4'-dideoxykanamycin B (abbreviated as AHV-MDBK) against various organisms were determined according to serial dilution method using nutrient agar medium at 37° C., the readings being made after 18 hours incubation. For the comparison purpose, the minimum inhibitory concentrations (mcg./ml.) of 1 N-(L-4-amino-2-hydroxybutyryl)-kanamycin A (abbreviated as AHB-KMA) and 1N-([…])-kanamycin B (abbreviated as AHB-KMB) which are known from U.S. Pat. No. 3,781,268 were also determined by the same manner as stated above.

[19] = tested on: Klebsiella pneumoniae 22 No. 3038; assay: as above; type: cell-based; conditions: 37° C., 18 hours, read-out: Minimum Inhibitory Concentrations
Description: as §1

[20] = tested on: Pseudomonas aeruginosa A3; assay: as above; type: cell-based; conditions: 37° C., 18 hours, read-out: Minimum Inhibitory Concentrations
Description: as §1

[21] = tested on: Shigella flexneri 4b JS 11811; assay: as above; type: cell-based; conditions: 4BJS11811, 37° C., 18 hours, read-out: Minimum Inhibitory Concentrations
Description: as §1

Shigella sonnei JS 11746 = assay: as above; type: cell-based; conditions: JS11746, 37° C., 18 hours, read-out: Minimum Inhibitory Concentrations
Description: as §1

[22] = tested on: Pseudomonas aeruginosa No. 12; assay: as above; type: cell-based; conditions: read-out: Minimum Inhibitory Concentrations
[23] = tested on: Pseudomonas aeruginosa TI-13; assay: as above; type: cell-based; conditions: Pseudomonas aeruginosa, TI13, 18 h, read-out: Minimum Inhibitory Concentrations
[24] = tested on: Pseudomonas aeruginosa GN315; assay: as above; type: cell-based; conditions: read-out: Minimum Inhibitory Concentrations
[25] = tested on: Pseudomonas aeruginosa 99; assay: as above; type: cell-based; conditions: 37° C., 18 hours, read-out: Minimum Inhibitory Concentrations
[26] = tested on: Escherichia coli K-12 ML 1410 R81; assay: as above; type: cell-based; conditions: 18 h, read-out: Minimum Inhibitory Concentrations

| Compound | MIC (Staphylococcus aureus) [µg/mL] | MIC [2] [µg/mL] | MIC [3] [µg/mL] | MIC (Sarcina lutea PCI 1001) [µg/mL] | MIC (Bacillus anthracis) [µg/mL] | MIC [4] [µg/mL] | MIC [5] [µg/mL] | MIC [6] [µg/mL] | MIC [8] [µg/mL] | MIC [9] [µg/mL] | MIC (Salmonella typhosa T-63) [µg/mL] | MIC [10] [µg/mL] | MIC (Proteus vulgaris OX 19) [µg/mL] | MIC [11] [µg/mL] | MIC (Escherichia coli K-12) [µg/mL] | MIC (Escherichia coli K-12 R5) [µg/mL] | MIC [14] [µg/mL] | MIC [15] [µg/mL] | MIC [16] [µg/mL] | MIC (Escherichia coli W677) [µg/mL] | further results |
| --- | --- | --- | --- | --- | --- | --- | --- | --- | --- | --- | --- | --- | --- | --- | --- | --- | --- | --- | --- | --- | --- |
| NCC[C@H](O)C(=O)N[C@@H]1C[C@H](N)[C@@H](O[C@H]2O[C@H](CN)[C@@H](O)[C@H](O)[C@H]2N)[C@H](O)[C@H]1O[C@H]1O[C@H](CO)[C@@H](O)[C@H](N)[C@H]1O [AHB-KMB, 1N-(L-4-amino-2-hydroxybutyryl)kanamycin B] | – | – | – | – | – | – | – | – | – | – | – | – | – | – | – | – | – | – | – | – | activity against kanamycin-resistant bacteria [1]: active against a large number of kanamycin-resistant bacteria |
| CNC[C@@H]1CC[C@@H](N)[C@@H](O[C@H]2[C@H](O)[C@@H](O[C@H]3O[C@H](CO)[C@@H](O)[C@H](N)[C@H]3O)[C@H](NC(=O)[C@@H](O)CCN)C[C@@H]2N)O1 [AHB-MDKB, 1N-(L-4-amino-2-hydroxybutyryl)-6'N-methyl-3',4'-dideoxykanamycin B] | < 0.2 | 0.78 (≈ 1.38 µM) | < 0.2 | 3.13 (≈ 5.52 µM) | < 0.2 | < 0.2 | < 0.2 | 3.13 (≈ 5.52 µM) | 0.2 (≈ 0.353 µM) | 3.13 (≈ 5.52 µM) | 3.13 (≈ 5.52 µM) | 1.56 (≈ 2.75 µM) | 1.56 (≈ 2.75 µM) | 0.78 (≈ 1.38 µM) | 0.78 (≈ 1.38 µM) | 1.56 (≈ 2.75 µM) | 0.78 (≈ 1.38 µM) | 0.78 (≈ 1.38 µM) | 0.78 (≈ 1.38 µM) | 0.78 (≈ 1.38 µM) | MIC ([7]; Corynebacterium bovis, 1810, 18 h): 3.13 µg/mL (≈ 5.52 µM); MIC (Escherichia coli NIHJ; Escherichia coli NIHJ, 37° C., 18 hours): 1.56 µg/mL (≈ 2.75 µM); MIC ([12]; K12ML1629, Escherichia coli K-12 ML 1629, 37° C., 18 hours): 1.56 µg/mL (≈ 2.75 µM); MIC ([13]; K12ML1410, Escherichia coli K-12 ML 1410, 37° C., 18 hours): 1.56 µg/mL (≈ 2.75 µM); MIC [17]: 3.13 µg/mL (≈ 5.52 µM); MIC [18]: 0.78 µg/mL (≈ 1.38 µM); MIC [19]: 3.13 µg/mL (≈ 5.52 µM); MIC [20]: 3.13 µg/mL (≈ 5.52 µM); MIC [21]: 3.13 µg/mL (≈ 5.52 µM); MIC (Shigella sonnei JS 11746): 6.25 µg/mL (≈ 11 µM); MIC ([22]; Pseudomonas aeruginosa, NO.12, 18 h): 3.13 µg/mL (≈ 5.52 µM); MIC [23]: 6.25 µg/mL (≈ 11 µM); MIC ([24]; Pseudomonas aeruginosa, GN315, 18 h): 6.25 µg/mL (≈ 11 µM); MIC [25]: 25 µg/mL (≈ 44.1 µM) |
| CNC[C@@H]1CC[C@@H](N)[C@@H](O[C@H]2[C@H](O)[C@@H](O[C@H]3O[C@H](CO)[C@@H](O)[C@H](N)[C@H]3O)[C@H](NC(=O)[C@@H](O)CN)C[C@@H]2N)O1 [L-IS-MDKB, 1N-(L-isoseryl)-6'N-methyl-3',4'-dideoxykanamycin B] | < 0.2 | < 0.2 | < 0.2 | 3.13 (≈ 5.66 µM) | < 0.2 | < 0.2 | < 0.2 | 1.56 (≈ 2.82 µM) | 0.39 (≈ 0.706 µM) | 3.13 (≈ 5.66 µM) | 0.39 (≈ 0.706 µM) | 0.78 (≈ 1.41 µM) | 0.78 (≈ 1.41 µM) | 0.78 (≈ 1.41 µM) | 0.78 (≈ 1.41 µM) | 1.56 (≈ 2.82 µM) | 1.56 (≈ 2.82 µM) | 0.78 (≈ 1.41 µM) | 0.39 (≈ 0.706 µM) | 0.78 (≈ 1.41 µM) | MIC ([7]; Corynebacterium bovis 1810, 37° C., 18 hours): 0.78 µg/mL (≈ 1.41 µM); MIC (Escherichia coli NIHJ; Escherichia coli, 18 h): 1.56 µg/mL (≈ 2.82 µM); MIC ([12]; Escherichia coli, K12ML1629, 18 h): 1.56 µg/mL (≈ 2.82 µM); MIC ([13]; Escherichia coli, K12ML1410, 18 h): 1.56 µg/mL (≈ 2.82 µM); MIC [26]: 1.56 µg/mL (≈ 2.82 µM); MIC [17]: 1.56 µg/mL (≈ 2.82 µM); MIC [18]: 1.56 µg/mL (≈ 2.82 µM); MIC [19]: 1.56 µg/mL (≈ 2.82 µM); MIC [20]: 3.13 µg/mL (≈ 5.66 µM); MIC [21]: 1.56 µg/mL (≈ 2.82 µM); MIC (Shigella sonnei JS 11746): 3.13 µg/mL (≈ 5.66 µM); MIC ([22]; Pseudomonas aeruginosa No. 12, 37° C., 18 hours): 25 µg/mL (≈ 45.2 µM); MIC [23]: 6.25 µg/mL (≈ 11.3 µM); MIC ([24]; Pseudomonas aeruginosa GN315, 37° C., 18 hours): 25 µg/mL (≈ 45.2 µM); MIC [25]: 25 µg/mL (≈ 45.2 µM) |
